The record followed here is ChEMBL document CHEMBL5634166, “Structural modification of tanshinone IIA and their α-glucosidase inhibitory activity” (Bioorg Med Chem Lett, 2024).

The target of assay [1] is T1, Alpha-glucosidase (Saccharomyces cerevisiae S288c) (UniProt P53341+P38158+P07265). Kind of assay: Inhibition of yeast alpha glucosidase at 50 uM relative to control. Format: protein assay.
Assay [2] concerns the target T2, Alpha-glucosidase (Saccharomyces cerevisiae S288c, UniProt P53341+P38158+P07265). Kind of assay: Inhibition of yeast alpha-glucosidase. The assay is classed as protein assay.
The target of assay [3] is T2, Alpha-glucosidase. As to the kind of experiment: Inhibition of Saccharomyces cerevisiae alpha-glucosidase using p-nitrophenyl-alpha-D-glucopyranoside as substrate preincubated for 5 mins followed by substrate addition and measured after 30 mins by spectrophotometric analysis. The assay is classed as protein assay.
In assay [4] the target is T1, Alpha-glucosidase (Saccharomyces cerevisiae S288c). Kind of assay: Potency index, ratio of acarbose IC50 to test compound IC50 for inhibition of yeast alpha glucosidase. The assay is classed as protein assay.
For assay [5] the target is unchanged. Kind of assay: Competitive inhibition of yeast alpha-glucosidase assessed as […] with constant Vmax by Lineweaver-Burk plot analysis. Format: protein assay.
In assay [6] the target is T2, Alpha-glucosidase. As to the kind of experiment: Binding affinity to yeast alpha glucosidase assessed as inhibition constant. The assay is classed as protein assay.
Assay [7] has as its target T2, Alpha-glucosidase. Kind of assay: Inhibition of alpha-glucosidase (unknown origin). Format: protein assay, Homo sapiens.

The structures appear in SMILES notation. The source made the active and inactive calls. No cut-off for these calls is given here.

Usually inhibition stands for the relative decrease from the control value, in per cent. The IC50 is the concentration at which inhibition is half-maximal. High values mean a need for much substance, low ones inhibition by little substance. In assay [1], `Cc1coc2c3ccc4c(c3c3oc(-c5ccc(C(F)(F)F)cc5)nc3c12)CCCC4(C)C` registered an inhibition greater than 80%. The molecule also displayed an IC50 at Alpha-glucosidase [2] of 2.33 µM. `Cc1coc2c1C(=O)C(=O)c1c-2ccc2c1CCCC2(C)C` [TANSHINONE IIA] showed an inhibition in assay [1] greater than 80%. The same molecule came in with an IC50 against Alpha-glucosidase [2] of 11.39 µM. On the same counts, the results for `Cc1coc2c3ccc4c(c3c3oc(Cc5ccc(O)cc5)nc3c12)CCCC4(C)C` are greater than 80% and 3.21 µM. On the same counts, the results for `Cc1coc2c3ccc4c(c3c3oc(CCc5ccccc5)nc3c12)CCCC4(C)C` are greater than 80% and 9.46 µM. On Alpha-glucosidase [3], `C=C(C)[C@@H]1CC[C@]2(C(=O)NCC(=O)O)CC[C@]3(C)[C@H](CC[C@@H]4[C@@]5(C)Cc6c([nH]c7ccccc67)C(C)(C)[C@@H]5CC[C@]43C)[C@@H]12` registered an IC50 of 0.04 µM. Molecule `Cc1coc2c3ccc4c(c3c3oc(-c5ccc(Cl)cc5)nc3c12)CCCC4(C)C` came in with an inhibition in assay [1] greater than 80%. Also, the IC50 against Alpha-glucosidase [2] worked out at 3.45 µM. In assay [4], the Ratio IC50 was determined as 30. One may read the Ki as the equilibrium dissociation constant of an inhibitor or competing ligand from its target. On to `Cc1coc2c3ccc4c(c3c3oc(Cc5ccc(O)c(O)c5)nc3c12)CCCC4(C)C`, for which the inhibition in assay [1] is greater than 80%. Besides, the IC50 at Alpha-glucosidase [2] was 0.73 µM. In addition, in assay [5], the inhibition result is “Active”. Besides, the inhibitory constant (Ki) on Alpha-glucosidase [6] was found to be 12.1 µM. In assay [1], `Cc1coc2c3ccc4c(c3c3oc(-c5ccc(Br)cc5)nc3c12)CCCC4(C)C` gave an inhibition of less than 80%. In the case of `Cc1coc2c3ccc4c(c3c3oc(-c5ccccc5)nc3c12)CCCC4(C)C`, the inhibition in assay [1] is greater than 80%. At Alpha-glucosidase [2], this molecule registered an IC50 of 3.51 µM. On the same counts, the results for `Cc1coc2c3ccc4c(c3c3oc(-c5ccc(Cl)c(Cl)c5)nc3c12)CCCC4(C)C` are greater than 80% and 6.67 µM. Molecule `Cc1coc2c3ccc4c(c3c3oc(-c5ccccc5C(F)(F)F)nc3c12)CCCC4(C)C` had an inhibition in assay [1] of less than 80%.

With `Cc1coc2c3ccc4c(c3c3oc(CCCc5ccccc5)nc3c12)CCCC4(C)C`, the inhibition in assay [1] is less than 80%. For `COc1ccc(-c2nc3c(o2)c2c4c(ccc2c2occ(C)c32)C(C)(C)CCC4)c(OC)c1`, the inhibition in assay [1] is less than 80%. On Alpha-glucosidase [7], `Oc1ccc(/C=N/c2nnc(-c3ccc(O)cc3)o2)cc1` yielded an IC50 of 0.3 µM.

In turn, `Cc1coc2c3ccc4c(c3c3oc(Cc5ccccc5)nc3c12)CCCC4(C)C` had an inhibition in assay [1] greater than 80%. This molecule registered an IC50 on Alpha-glucosidase [2] of 4.14 µM.

The molecule `Cc1coc2c3ccc4c(c3c3oc(-c5ccccc5F)nc3c12)CCCC4(C)C` came in with an inhibition in assay [1] of less than 80%. On the same count and under the same terms, the same measure for `COc1cc(-c2nc3c(o2)c2c4c(ccc2c2occ(C)c32)C(C)(C)CCC4)ccc1O`: less than 80%.
